Earlier results in patent EP0409862B1, “TOPICAL PREPARATIONS” (Seton Healthcare Group plc, priority 1988, dated 1989).

solubility in various organic liquids such as alcohols: soluble
solubility in water (fine powder): essentially insoluble
SMILES: COC1=CC(=O)C[C@@H](C)[C@]12Oc1c(Cl)c(OC)cc(OC)c1C2=O [Griseofulvin]
